“And” between values parts separate entries of the source, which are not always exact repeats. Equal values may be shown once.
Tested on: 855422-203-R-J1-PDC complex spheroid viability
Experiment: Anticancer human tumor 855422-203-R-J1-PDC patient-derived bladder carcinoma cell line growth inhibition
Conditions: for viability, T/C: stronger effect = lower value
Procedure, shortened: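 Complex spheroids of tumor cells with HUVEC and human MSCs, exposed to iadademstat combined with other agents. Each agent tested in half-log steps from near clinical Cmax (else 10 microM top), DMSO ≤0.25%.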

[1] = curve of first compound, second compound 0.1 µM
[2] = curve of first compound, second compound 0.316 µM
[3] = curve of first compound, second compound 1 µM
[4] = curve of first compound, second compound 3.16 µM
[5] = curve of first compound, second compound 10 µM
[6] = second compound 0.1 µM, first compound 0.00949 µM
[7] = second compound 0.1 µM, first compound 0.03 µM
[8] = second compound 0.1 µM, first compound 0.0949 µM
[9] = second compound 0.1 µM, first compound 0.3 µM
[10] = second compound 0.316 µM, first compound 0.00949 µM
[11] = second compound 0.316 µM, first compound 0.03 µM
[12] = second compound 0.316 µM, first compound 0.0949 µM
[13] = second compound 0.316 µM, first compound 0.3 µM
[14] = second compound 1 µM, first compound 0.00949 µM
[15] = second compound 1 µM, first compound 0.03 µM
[16] = second compound 1 µM, first compound 0.0949 µM
[17] = second compound 1 µM, first compound 0.3 µM
[18] = second compound 3.16 µM, first compound 0.00949 µM
[19] = second compound 3.16 µM, first compound 0.03 µM
[20] = second compound 3.16 µM, first compound 0.0949 µM
[21] = second compound 3.16 µM, first compound 0.3 µM
[22] = second compound 10 µM, first compound 0.00949 µM
[23] = second compound 10 µM, first compound 0.03 µM
[24] = second compound 10 µM, first compound 0.0949 µM
[25] = second compound 10 µM, first compound 0.3 µM
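Also: drug exposure lasted 7 days starting on day 3 after seeding.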
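For viability, T/C in this document: luminescence viability as percent of DMSO vehicle wells = 100%.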

Compound `Nc1ncn(C2CC(O)C(CO)S2)c(=O)n1` (configuration not stated) + NC1CC1c1ccc(-c2cccc(O)c2)cc1 has an IC50 [1] greater than 300 nM, an IC50 [2] greater than 300 nM and an IC50 [3] greater than 300 nM. The IC50 [4] was greater than 300 nM, the IC50 [5] was greater than 300 nM and the viability, T/C (second compound 0.1 µM, first compound 0.000949 µM) was 94.4%. The viability, T/C (second compound 0.1 µM, first compound 0.003 µM) was 95.2%, the viability, T/C [6] was 92.8% and the viability, T/C [7] was 105%. It also gave a viability, T/C [8] of 93.2%, a viability, T/C [9] of 83.5% and a viability, T/C (second compound 0.316 µM, first compound 0.000949 µM) of 87.7%. For the same compound, the viability, T/C (second compound 0.316 µM, first compound 0.003 µM) was 91.2%, the viability, T/C [10] was 92.3% and the viability, T/C [11] was 103%. For the same compound, the viability, T/C [12] was 97.5%, the viability, T/C [13] was 77.9% and the viability, T/C (second compound 1 µM, first compound 0.000949 µM) was 87.3%. For the same compound, the viability, T/C (second compound 1 µM, first compound 0.003 µM) was 88.6%, the viability, T/C [14] was 93.5% and the viability, T/C [15] was 99.2%. It also gave a viability, T/C [16] of 95.4%, a viability, T/C [17] of 73.1% and a viability, T/C (second compound 3.16 µM, first compound 0.000949 µM) of 81.9%. It also gave a viability, T/C (second compound 3.16 µM, first compound 0.003 µM) of 84.9%, a viability, T/C [18] of 91.3% and a viability, T/C [19] of 93.4%. It also gave a viability, T/C [20] of 93.7%, a viability, T/C [21] of 73.4% and a viability, T/C (second compound 10 µM, first compound 0.000949 µM) of 85.9%. The viability, T/C (second compound 10 µM, first compound 0.003 µM) was 83.3%, the viability, T/C [22] was 85.6% and the viability, T/C [23] was 94.3%. It also gave a viability, T/C [24] of 84.4% and a viability, T/C [25] of 68.8%.

`CCN(c1cc(-c2ccc(CN3CCOCC3)cc2)cc(C(=O)NCc2c(C)cc(C)[nH]c2=O)c1C)C1CCOCC1` + NC1CC1c1ccc(-c2cccc(O)c2)cc1 was tested, and the IC50 [1] was greater than 3000 nM, the IC50 [2] was greater than 3000 nM and the IC50 [3] was greater than 3000 nM. The IC50 [4] was greater than 3000 nM, the IC50 [5] was greater than 3000 nM and the viability, T/C [6] was 90.2%. It also gave a viability, T/C [7] of 96.8%, a viability, T/C [8] of 99% and a viability, T/C [9] of 98%. The viability, T/C (second compound 0.1 µM, first compound 0.949 µM) was 89%, the viability, T/C (second compound 0.1 µM, first compound 3 µM) was 84.9% and the viability, T/C [10] was 89%. The viability, T/C [11] was 96.8%, the viability, T/C [12] was 96.5% and the viability, T/C [13] was 105%. For the same compound, the viability, T/C (second compound 0.316 µM, first compound 0.949 µM) was 93%, the viability, T/C (second compound 0.316 µM, first compound 3 µM) was 99.2% and the viability, T/C [14] was 91.4%. The viability, T/C [15] was 89.3%, the viability, T/C [16] was 97.7% and the viability, T/C [17] was 88.7%. For the same compound, the viability, T/C (second compound 1 µM, first compound 0.949 µM) was 87.7%, the viability, T/C (second compound 1 µM, first compound 3 µM) was 86.4% and the viability, T/C [18] was 102%. For the same compound, the viability, T/C [19] was 94%, the viability, T/C [20] was 91.6% and the viability, T/C [21] was 103%. For the same compound, the viability, T/C (second compound 3.16 µM, first compound 0.949 µM) was 95.1%, the viability, T/C (second compound 3.16 µM, first compound 3 µM) was 97.7% and the viability, T/C [22] was 99.9%. For the same compound, the viability, T/C [23] was 101%, the viability, T/C [24] was 91.4% and the viability, T/C [25] was 94.7%. The viability, T/C (second compound 10 µM, first compound 0.949 µM) was 97.8% and the viability, T/C (second compound 10 µM, first compound 3 µM) was 92.6%.

In the case of `CC(C)CC(NC(=O)CNC(=O)c1cc(Cl)ccc1Cl)B1OC(=O)CC(CC(=O)O)(C(=O)O)O1` (configuration not stated) + NC1CC1c1ccc(-c2cccc(O)c2)cc1, the IC50 [1] is reported as 1.8 nM, the IC50 [2] is reported as 1.83 nM and the IC50 [3] is reported as 1.84 nM. The IC50 [4] was 1.75 nM, the IC50 [5] was 1.55 nM and the viability, T/C (second compound 0.1 µM, first compound 0.000316 µM) was 92.8%. For the same compound, the viability, T/C (second compound 0.1 µM, first compound 0.001 µM) was 104%, the viability, T/C (second compound 0.1 µM, first compound 0.00316 µM) was 3.7% and the viability, T/C (second compound 0.1 µM, first compound 0.01 µM) was 0.43%. It also gave a viability, T/C (second compound 0.1 µM, first compound 0.0316 µM) of 0.02%, a viability, T/C (second compound 0.1 µM, first compound 0.1 µM) of 0.13% and a viability, T/C (second compound 0.316 µM, first compound 0.000316 µM) of 104%. For the same compound, the viability, T/C (second compound 0.316 µM, first compound 0.001 µM) was 102%, the viability, T/C (second compound 0.316 µM, first compound 0.00316 µM) was 3.27% and the viability, T/C (second compound 0.316 µM, first compound 0.01 µM) was 1.25%. The viability, T/C (second compound 0.316 µM, first compound 0.0316 µM) was 0.02%, the viability, T/C (second compound 0.316 µM, first compound 0.1 µM) was 0.1% and the viability, T/C (second compound 1 µM, first compound 0.000316 µM) was 94.6%. For the same compound, the viability, T/C (second compound 1 µM, first compound 0.001 µM) was 108%, the viability, T/C (second compound 1 µM, first compound 0.00316 µM) was 3.81% and the viability, T/C (second compound 1 µM, first compound 0.01 µM) was 1.65%. It also gave a viability, T/C (second compound 1 µM, first compound 0.0316 µM) of 0.03%, a viability, T/C (second compound 1 µM, first compound 0.1 µM) of 0.11% and a viability, T/C (second compound 3.16 µM, first compound 0.000316 µM) of 95%. For the same compound, the viability, T/C (second compound 3.16 µM, first compound 0.001 µM) was 94.6%, the viability, T/C (second compound 3.16 µM, first compound 0.00316 µM) was 3.11% and the viability, T/C (second compound 3.16 µM, first compound 0.01 µM) was 1%. For the same compound, the viability, T/C (second compound 3.16 µM, first compound 0.0316 µM) was 0.03%, the viability, T/C (second compound 3.16 µM, first compound 0.1 µM) was 0.1% and the viability, T/C (second compound 10 µM, first compound 0.000316 µM) was 92%. For the same compound, the viability, T/C (second compound 10 µM, first compound 0.001 µM) was 78.9%, the viability, T/C (second compound 10 µM, first compound 0.00316 µM) was 2.61% and the viability, T/C (second compound 10 µM, first compound 0.01 µM) was 0.2%. The viability, T/C (second compound 10 µM, first compound 0.0316 µM) was 0.11% and the viability, T/C (second compound 10 µM, first compound 0.1 µM) was 0.17%.

For `CC(C)CC(NC(=O)C(Cc1ccccc1)NC(=O)c1cnccn1)B(O)O` (configuration not stated), the viability, T/C (compound 0.000316 µM) was 90.9% and 115%, the viability, T/C (compound 0.001 µM) was 2.15% and 1.03% and the viability, T/C (compound 0.00316 µM) was 0.11% and 0.13%. For the same compound, the viability, T/C (compound 0.01 µM) was 0.1% and 0.12%, the viability, T/C (compound 0.0316 µM) was 0.09% and 0.13% and the viability, T/C (compound 0.1 µM) was 0.14% and 0.2%. For the same compound, the IC50 (curve of compound) was 0.538 nM and 0.61 nM.
